Laboratory results as given in ChEMBL document CHEMBL1142322, “Synthesis and biological evaluation of novel 8-aminomethylated oroxylin A analogues as alpha-glucosidase inhibitors” (Bioorg Med Chem Lett, 2008).
Active and inactive are the calls of the source. No cut-off for these calls is given here.

Tests used:
[1] = (§1) Inhibition of rat intestinal alpha-glucosidase
[2] = (§2) Inhibition of yeast alpha-glucosidase; design: species or system Saccharomyces cerevisiae
[3] = species on record: Rattus norvegicus; test: as §1
[4] = tested on: Saccharomyces cerevisiae; test: as §2
[5] = molecular target: Sucrase-isomaltase, intestinal (Homo sapiens, UniProt P14410); test: Inhibition of sucrase
Chain of Sucrase-isomaltase, intestinal (P14410 2-1007 limits assumed): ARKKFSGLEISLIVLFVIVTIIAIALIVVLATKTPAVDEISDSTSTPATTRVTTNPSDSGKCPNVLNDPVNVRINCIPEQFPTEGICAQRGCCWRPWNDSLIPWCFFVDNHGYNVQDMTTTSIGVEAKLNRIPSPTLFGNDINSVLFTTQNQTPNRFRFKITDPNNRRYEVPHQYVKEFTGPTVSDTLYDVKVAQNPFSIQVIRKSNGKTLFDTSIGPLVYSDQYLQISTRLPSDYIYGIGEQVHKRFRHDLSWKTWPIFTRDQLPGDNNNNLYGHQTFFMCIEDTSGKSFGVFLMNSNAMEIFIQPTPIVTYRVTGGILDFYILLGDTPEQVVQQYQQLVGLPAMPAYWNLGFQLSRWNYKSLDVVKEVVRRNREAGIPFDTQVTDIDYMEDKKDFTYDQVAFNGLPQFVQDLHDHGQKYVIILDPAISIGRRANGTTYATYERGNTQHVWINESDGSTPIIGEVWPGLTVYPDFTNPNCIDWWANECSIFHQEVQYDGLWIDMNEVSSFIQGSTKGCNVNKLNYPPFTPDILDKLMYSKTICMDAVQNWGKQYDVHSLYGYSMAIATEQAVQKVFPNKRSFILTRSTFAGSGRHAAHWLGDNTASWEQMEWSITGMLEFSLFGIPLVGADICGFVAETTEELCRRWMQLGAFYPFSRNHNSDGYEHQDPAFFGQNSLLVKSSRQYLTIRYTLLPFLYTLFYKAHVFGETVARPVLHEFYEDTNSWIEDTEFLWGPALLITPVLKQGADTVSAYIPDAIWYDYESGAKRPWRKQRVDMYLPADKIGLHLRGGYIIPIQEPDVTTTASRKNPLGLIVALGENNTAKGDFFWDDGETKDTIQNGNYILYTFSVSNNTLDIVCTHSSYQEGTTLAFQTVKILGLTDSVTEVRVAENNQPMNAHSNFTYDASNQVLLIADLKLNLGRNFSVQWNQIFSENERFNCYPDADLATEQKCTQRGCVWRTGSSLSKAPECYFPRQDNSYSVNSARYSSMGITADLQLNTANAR
Chain of Sucrase-isomaltase, intestinal (P14410 1008-1827 limits assumed): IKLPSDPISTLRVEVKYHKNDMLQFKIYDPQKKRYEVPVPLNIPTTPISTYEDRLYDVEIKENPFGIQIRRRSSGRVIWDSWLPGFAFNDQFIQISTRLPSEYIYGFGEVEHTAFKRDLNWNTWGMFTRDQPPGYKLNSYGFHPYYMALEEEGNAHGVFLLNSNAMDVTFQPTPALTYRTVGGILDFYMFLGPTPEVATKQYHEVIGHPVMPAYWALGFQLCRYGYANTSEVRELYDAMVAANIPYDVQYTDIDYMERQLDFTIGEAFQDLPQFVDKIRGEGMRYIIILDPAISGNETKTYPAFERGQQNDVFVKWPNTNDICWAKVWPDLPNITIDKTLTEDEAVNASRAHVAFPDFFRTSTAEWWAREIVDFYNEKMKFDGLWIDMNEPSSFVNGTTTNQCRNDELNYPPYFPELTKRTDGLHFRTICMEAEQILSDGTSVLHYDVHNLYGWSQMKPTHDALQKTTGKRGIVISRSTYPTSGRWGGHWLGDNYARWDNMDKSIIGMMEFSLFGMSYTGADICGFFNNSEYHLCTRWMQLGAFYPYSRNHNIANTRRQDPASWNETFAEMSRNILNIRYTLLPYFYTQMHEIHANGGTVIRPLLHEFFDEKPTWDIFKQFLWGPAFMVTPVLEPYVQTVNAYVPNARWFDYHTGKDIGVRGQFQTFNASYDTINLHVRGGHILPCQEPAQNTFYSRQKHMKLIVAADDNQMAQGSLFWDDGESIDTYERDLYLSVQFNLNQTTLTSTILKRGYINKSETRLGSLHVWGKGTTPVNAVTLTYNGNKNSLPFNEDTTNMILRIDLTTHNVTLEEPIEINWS

Row | Compound | IC50 [1] [µM] | IC50 [2] [µM] | Activity [3] | Activity [4] | IC50 [5] [µM]
1 | COc1c(O)cc2oc(-c3ccccc3)cc(=O)c2c1O [OROXYLIN A] | 135 | 124 |  |  | 
2 | O=c1cc(-c2ccccc2)oc2cc(O)c(O)c(O)c12 [BAICALEIN] | 215 | 203 |  |  | 52
3 | COc1c(O)c(CN(C)Cc2ccccc2)c2oc(-c3ccccc3)cc(=O)c2c1O |  |  | inactive | inactive | 
4 | O=c1cc(-c2ccccc2)oc2cc(O)cc(O)c12 [CHRYSIN] | 376 | 371 |  |  | 
5 | COc1c(O)c(CN2CCN(C)CC2)c2oc(-c3ccccc3)cc(=O)c2c1O | 35.4 | 98.8 |  |  | 
6 | CCCCNCc1c(O)c(OC)c(O)c2c(=O)cc(-c3ccccc3)oc12 |  |  | inactive | inactive | 

Other lines, results leading:

Row | IC50 [1] [µM] | IC50 [2] [µM] | Activity [3] | Activity [4] | IC50 [5] [µM] | Compound
7 |  |  | inactive | inactive |  | COc1c(O)c(CN(C)Cc2ccco2)c2oc(-c3ccccc3)cc(=O)c2c1O
8 | 76 | 150 |  |  |  | COc1c(O)c(CN2CCOCC2)c2oc(-c3ccccc3)cc(=O)c2c1O
9 | 6.38 |  |  |  |  | C[C@H]1O[C@H](O[C@H]2[C@H](O)[C@@H](O)[C@@H](O[C@H]3[C@H](O)[C@@H](O)C(O)O[C@@H]3CO)O[C@@H]2CO)[C@H](O)[C@@H](O)[C@@H]1N[C@H]1C=C(CO)[C@@H](O)[C@H](O)[C@H]1O (some centres undefined) [ACARBOSE]
10 | 75 | 84.4 |  |  |  | COc1c(O)c(CN2CCN(C(=O)OC(C)(C)C)CC2)c2oc(-c3ccccc3)cc(=O)c2c1O
11 |  | 49.3 |  |  |  | OC[C@H]1NC[C@H](O)[C@@H](O)[C@@H]1O [DUVOGLUSTAT]
12 |  |  | inactive | inactive |  | COc1c(O)c(CNCc2ccccc2)c2oc(-c3ccccc3)cc(=O)c2c1O
13 | 50.7 | 167 |  |  |  | COc1c(O)c(CN2CCCCC2)c2oc(-c3ccccc3)cc(=O)c2c1O
14 |  |  | inactive | inactive |  | COc1c(O)c(CN(c2ccccc2)c2ccccc2)c2oc(-c3ccccc3)cc(=O)c2c1O
15 |  |  | inactive | inactive |  | COc1c(O)c(CN2CCCC2)c2oc(-c3ccccc3)cc(=O)c2c1O
